# Results published in patent US9302999B2, “Substituted triazoles as herbicides” (E. I. DU PONT DE NEMOURS AND COMPANY, priority 2012, dated 2016).
# Assays:
# Type in all cases: in vivo
# [1] = system: crabgrass, large (large crabgrass, Digitaria sanguinalis); assay: Test A pre-/postemergence: crabgrass, large
# Summary of the method: (§1)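 Pre: directed soil spray after planting in loam + sand. Post: same formulation (non-phytotoxic solvent + surfactant) on 1–2-leaf plants, 2–10 cm. Greenhouse ~10 d; visual injury 0–100 vs untreated.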
# [2] = system: foxtail, giant (giant foxtail, Setaria faberii); assay: Test A pre-/postemergence: foxtail, giant
# Summary of the method: as §1
# [3] = system: pigweed (Amaranthus retroflexus); assay: Test A pre-/postemergence: pigweed
# Summary of the method: as §1
# [4] = system: velvetleaf (Abutilon theophrasti); assay: Test A pre-/postemergence: velvetleaf
# Summary of the method: as §1
# [5] = system: wheat (Triticum aestivum); assay: Test A pre-/postemergence: wheat
# Summary of the method: as §1
# [6] = system: barnyardgrass (Echinochloa crus-galli); assay: Test B flooded paddy: barnyardgrass; settings: Flood; 250 g ai/ha; applied to paddy water at 2-leaf stage; visually evaluated after 13 to 15 days
# Summary of the method: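 Greenhouse assay lasting 13 to 15 days. Treatment was into water flooding pots 3 cm deep, at the 2-leaf stage, with that level sustained afterwards. Scores compare treated with control plants visually, 100 denoting complete control and 0 no effect; a dash marks no test result.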
# [7] = system: blackgrass (Alopecurus myosuroides); assay: Test C pre-/postemergence: blackgrass
# Summary of the method: (§2)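 Visual injury scored 0–100 (100 = complete control) against untreated controls after 13–15 greenhouse days. Surfactant-containing solvent formulations applied either to soil after sowing (loam/sand) or over 1- to 4-leaf plants, 2–18 cm tall.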
# [8] = system: morningglory (Ipomoea coccinea); assay: Test C pre-/postemergence: morningglory
# Summary of the method: as §2
# [9] = system: ragweed (common ragweed, Ambrosia elation); assay: Test C pre-/postemergence: ragweed
# Summary of the method: as §2
# [10] = system: chickweed (common chickweed, Stellaria media); assay: Test C postemergence: chickweed
# Summary of the method: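 Response values are visual ratings, 0 (no effect) to 100 (complete control), made by comparison with untreated controls 13 to 15 days after postemergence treatment of greenhouse-grown potted plants that were 2 to 18 cm high at spraying.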
# [11] = Postemergence, 125 g ai/ha, 0 to 100 scale, 0 is no effect, 100 is complete control
# [12] = Postemergence, 500 g ai/ha, 0 to 100 scale, 0 is no effect, 100 is complete control
# [13] = Preemergence, 125 g ai/ha, 0 to 100 scale where 0 is no effect and 100 is complete control
# [14] = Preemergence, 500 g ai/ha, 0 to 100 scale (0 no effect, 100 complete control)
# [15] = Postemergence, 31 g ai/ha, scale 0 to 100 (0 no effect, 100 complete control)
# [16] = Postemergence, 62 g ai/ha, scale 0 to 100 (0 no effect, 100 complete control)
# [17] = Postemergence, 125 g ai/ha, scale 0 to 100, 0 no effect, 100 complete control
# [18] = Postemergence, 250 g ai/ha, scale 0 to 100
# [19] = Preemergence, 31 g ai/ha, scale 0 (no effect) to 100 (complete control)
# [20] = Preemergence, 62 g ai/ha, scale of 0 to 100, 0 is no effect, 100 is complete control
# [21] = Preemergence, 125 g ai/ha, scale 0 to 100, 0 no effect, 100 complete control
# [22] = Preemergence, 250 g ai/ha, scale 0 to 100, 0 no effect, 100 complete control
# [23] = Postemergence, 250 g ai/ha, scale 0 to 100 (0 no effect, 100 complete control)
# [24] = 31 g ai/ha, scale 0 to 100 (0 no effect, 100 complete control)
# [25] = 62 g ai/ha, scale 0 to 100 (0 no effect, 100 complete control)
smiles,measurement,setting,value
CCCc1nn(-c2ccc(C(F)(F)F)cc2)nc1Oc1ccnc(C(F)(F)F)c1 [Compound 170],"Plant response rating, Crabgrass, Large",[1]; [11],100
same,"Crabgrass, Large plant response rating",[1]; [12],100
same,"Plant response rating, Crabgrass, Large",[1]; [13],100
same,"Plant response rating, Crabgrass, Large",[1]; [14],100
same,"Plant response rating, Foxtail, Giant",[2]; [11],90
same,"Foxtail, Giant plant response rating",[2]; [12],90
same,"Plant response rating, Foxtail, Giant",[2]; [13],100
same,"Plant response rating, Foxtail, Giant",[2]; [14],100
same,"Plant response rating, Pigweed",[3]; [11],100
same,Pigweed plant response rating,[3]; [12],100
same,"Plant response rating, Pigweed",[3]; [13],100
same,"Plant response rating, Pigweed",[3]; [14],100
same,"Plant response rating, Velvetleaf",[4]; [11],100
same,Velvetleaf plant response rating,[4]; [12],100
same,"Plant response rating, Velvetleaf",[4]; [13],90
same,"Plant response rating, Velvetleaf",[4]; [14],100
same,"Plant response rating, Wheat",[5]; [11],40
same,Wheat plant response rating,[5]; [12],50
same,"Plant response rating, Wheat",[5]; [13],60
same,"Plant response rating, Wheat",[5]; [14],80
same,"Plant response rating, Barnyardgrass (0 to 100 scale, 0 is no effect, 100 is complete control)",[6],80
same,"Plant response rating, Blackgrass",[7]; [15],10
same,"Plant response rating, Blackgrass",[7]; [16],10
same,"Plant response rating, Blackgrass",[7]; [17],60
same,"Plant response rating, Blackgrass",[7]; [18],70
same,"Plant response rating, Blackgrass",[7]; [19],90
same,"Plant response rating, Blackgrass",[7]; [20],95
same,"Plant response rating, Blackgrass",[7]; [21],100
same,"Plant response rating, Blackgrass",[7]; [22],100
same,"Plant response rating, Morningglory",[8]; [15],75
same,"Plant response rating, Morningglory",[8]; [16],98
same,"Plant response rating, Morningglory",[8]; [17],100
same,"Plant response rating, Morningglory",[8]; [23],100
same,"Plant response rating, Morningglory",[8]; [19],35
same,"Plant response rating, Morningglory",[8]; [20],55
same,"Plant response rating, Morningglory",[8]; [21],100
same,"Plant response rating, Morningglory",[8]; [22],100
same,"Plant response rating, Ragweed",[9]; [15],85
same,"Plant response rating, Ragweed",[9]; [16],85
same,"Plant response rating, Ragweed",[9]; [17],90
same,"Plant response rating, Ragweed",[9]; [23],90
same,"Plant response rating, Ragweed",[9]; [19],5
same,"Plant response rating, Ragweed",[9]; [20],60
same,"Plant response rating, Ragweed",[9]; [21],75
same,"Plant response rating, Ragweed",[9]; [22],95
same,"Plant response rating, Chickweed",[10]; [24],75
same,"Plant response rating, Chickweed",[10]; [25],95
same,"Plant response rating, Chickweed","[10]; 250 g ai/ha, scale 0 to 100",95
CCc1nn(-c2ccc(F)c(F)c2)nc1Oc1ccnc(C(F)(F)F)c1 [Compound 171],"Plant response rating, Crabgrass, Large",[1]; [11],90
same,"Crabgrass, Large plant response rating",[1]; [12],100
same,"Plant response rating, Crabgrass, Large",[1]; [13],100
same,"Plant response rating, Crabgrass, Large",[1]; [14],100
same,"Plant response rating, Foxtail, Giant",[2]; [11],80
same,"Foxtail, Giant plant response rating",[2]; [12],90
same,"Plant response rating, Foxtail, Giant",[2]; [13],100
same,"Plant response rating, Foxtail, Giant",[2]; [14],100
same,"Plant response rating, Pigweed",[3]; [11],100
same,Pigweed plant response rating,[3]; [12],100
same,"Plant response rating, Pigweed",[3]; [13],100
same,"Plant response rating, Pigweed",[3]; [14],100
same,"Plant response rating, Velvetleaf",[4]; [11],70
same,Velvetleaf plant response rating,[4]; [12],90
same,"Plant response rating, Velvetleaf",[4]; [13],60
same,"Plant response rating, Velvetleaf",[4]; [14],80
same,"Plant response rating, Wheat",[5]; [11],30
same,Wheat plant response rating,[5]; [12],40
same,"Plant response rating, Wheat",[5]; [13],10
same,"Plant response rating, Wheat",[5]; [14],60
same,"Plant response rating, Barnyardgrass (0 to 100 scale, 0 is no effect, 100 is complete control)",[6],70
same,"Plant response rating, Blackgrass",[7]; [15],5
same,"Plant response rating, Blackgrass",[7]; [16],10
same,"Plant response rating, Blackgrass",[7]; [17],10
same,"Plant response rating, Blackgrass",[7]; [18],30
same,"Plant response rating, Blackgrass",[7]; [19],5
same,"Plant response rating, Blackgrass",[7]; [20],98
same,"Plant response rating, Blackgrass",[7]; [21],100
same,"Plant response rating, Blackgrass",[7]; [22],100
same,"Plant response rating, Morningglory",[8]; [15],60
same,"Plant response rating, Morningglory",[8]; [16],65
same,"Plant response rating, Morningglory",[8]; [17],98
same,"Plant response rating, Morningglory",[8]; [19],0
same,"Plant response rating, Morningglory",[8]; [20],20
same,"Plant response rating, Morningglory",[8]; [21],25
same,"Plant response rating, Morningglory",[8]; [22],25
same,"Plant response rating, Ragweed",[9]; [15],55
same,"Plant response rating, Ragweed",[9]; [16],55
same,"Plant response rating, Ragweed",[9]; [17],55
same,"Plant response rating, Ragweed",[9]; [23],55
same,"Plant response rating, Ragweed",[9]; [19],0
same,"Plant response rating, Ragweed",[9]; [20],5
same,"Plant response rating, Ragweed",[9]; [21],10
same,"Plant response rating, Ragweed",[9]; [22],15
same,"Plant response rating, Chickweed",[10]; [24],50
same,"Plant response rating, Chickweed",[10]; [25],70
same,"Plant response rating, Chickweed","[10]; 125 g ai/ha, scale 0 to 100, 0 no effect, 100 complete control",95
same,"Plant response rating, Chickweed","[10]; 250 g ai/ha, scale 0 to 100",100
